Measurements: ChEMBL document CHEMBL1201862, “PubChem BioAssay data set” (2004)
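The compound was tested at five concentrations on cells cultured in 96-well plates, with a 48-hour exposure period. GI50: concentration for 50% inhibition of growth.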 Activity calls are given as the source filed them. Rule as the data show it: active = GI50 up to about 1.1 µM and inactive = higher.

Tests used:
Assay in all cases: NCI-60 cell line screen, 48 h
RXF 631 = test system: RXF 631
SNB-78 = test system: SNB-78
HOP-18 = test system: HOP-18
DMS-273 = test system: DMS-273
DLD-1 = test system: DLD-1
XF498 = test system: XF498
KM-20L2 = test system: KM-20L2
LXFL 529 = test system: LXFL 529
M19-MEL = test system: M19-MEL

Measured: GI50

O=[N+]([O-])c1cccnc1S(=O)(=O)c1ccccc1
inactive: RXF 631 2.86 µM | SNB-78 11.2 µM | HOP-18 12.9 µM | DMS-273 7.87 µM | DLD-1 2.49 µM | XF498 13.1 µM | KM-20L2 12.8 µM | LXFL 529 2.4 µM | M19-MEL 13.5 µM

COc1ccc(/C(Cl)=C(\CN(C)C)c2ccc(OC)c(OC)c2)cc1OC
inactive: SNB-78 > 100 µM | HOP-18 > 100 µM | DMS-273 > 100 µM | XF498 19.8 µM | KM-20L2 > 100 µM | LXFL 529 > 100 µM | M19-MEL > 100 µM

CC(C)/C=C1\CCC(CN(C)C)C1=O (configuration not stated)
inactive: SNB-78 4.51 µM | HOP-18 3.36 µM | DLD-1 1.67 µM | XF498 1.91 µM | KM-20L2 9.75 µM | LXFL 529 1.5 µM | M19-MEL 9.27 µM

CC(=O)OC1CCn2nnc(CO[Si](C)(C)C(C)(C)C)c21 (configuration not stated)
inactive: HOP-18 > 100 µM | DMS-273 > 100 µM | DLD-1 > 100 µM | XF498 > 100 µM | KM-20L2 > 100 µM | LXFL 529 > 100 µM

OC1=CN=C(c2ccccc2)Oc2ccccc21
inactive: RXF 631 > 100 µM | SNB-78 80.4 µM | DMS-273 > 100 µM | DLD-1 > 100 µM | KM-20L2 > 100 µM | LXFL 529 > 100 µM | M19-MEL > 100 µM

COC(=O)N/N=C(\C)C(CN1CCCCC1)C(C1=C(O)c2ccccc2OC1)c1ccccc1 (configuration not stated)
inactive: SNB-78 > 100 µM | HOP-18 > 100 µM | DMS-273 > 100 µM | DLD-1 > 100 µM | XF498 > 100 µM | KM-20L2 > 100 µM | LXFL 529 > 100 µM | M19-MEL > 100 µM

Cc1cc(N(CCC#N)S(=O)(=O)c2ccccc2)ccc1/C=C1\N=C(c2ccc(Cl)cc2)OC1=O
inactive: SNB-78 > 100 µM | DMS-273 > 100 µM | DLD-1 > 100 µM | XF498 > 100 µM | KM-20L2 > 100 µM | LXFL 529 > 100 µM

CN(O)C(=O)Cc1ccccc1
inactive: SNB-78 > 100 µM | DMS-273 > 100 µM | DLD-1 > 100 µM | XF498 > 100 µM | KM-20L2 > 100 µM | LXFL 529 > 100 µM | M19-MEL > 100 µM

CCOC(=O)C=C1CCN(C(=O)c2ccccc2)CC1
inactive: RXF 631 > 100 µM | SNB-78 > 100 µM | HOP-18 > 100 µM | DMS-273 > 100 µM | DLD-1 > 100 µM | XF498 > 100 µM | KM-20L2 > 100 µM | LXFL 529 > 100 µM | M19-MEL > 100 µM

CC(C)(C)c1ccc2c(c1)C(O)(c1ccccc1)c1cc(C(C)(C)C)ccc1C2(O)C(F)(F)F (configuration not stated)
inactive: HOP-18 2.2 µM | DMS-273 1.74 µM | DLD-1 2.03 µM | XF498 1.53 µM | KM-20L2 1.59 µM | LXFL 529 1.97 µM | M19-MEL 1.85 µM

COc1ccc2c(c1)N1CCc3cc(OC)c(OC)cc3C1C2 (configuration not stated)
inactive: SNB-78 > 100 µM | HOP-18 > 100 µM | DMS-273 43.3 µM | DLD-1 39.7 µM | XF498 26.5 µM | KM-20L2 73.3 µM | LXFL 529 34 µM | M19-MEL 41.2 µM

O=C(CC1=Nc2nnc(CCCCCCCc3nnc4n3C(=O)C(CC(=O)c3ccccc3)=N4)n2C1=O)c1ccccc1
inactive: HOP-18 > 100 µM | DLD-1 > 100 µM | XF498 > 100 µM | KM-20L2 > 100 µM | LXFL 529 > 100 µM | M19-MEL > 100 µM

O=[N+]([O-])C=C(c1ccc(Cl)cc1)c1ccc(Cl)cc1
inactive: SNB-78 18.2 µM | DMS-273 5.69 µM | DLD-1 13.9 µM | KM-20L2 18.9 µM | LXFL 529 15.1 µM

O=c1[nH]c(=O)n(C2CC(O)C(CO)O2)cc1C#Cc1ccc(F)cc1 (configuration not stated)
inactive: SNB-78 > 100 µM | HOP-18 > 100 µM | DMS-273 > 100 µM | DLD-1 > 100 µM | XF498 > 100 µM | KM-20L2 > 100 µM | LXFL 529 > 100 µM | M19-MEL > 100 µM

O=C(Nc1ccc2[nH]c3c(-c4ccccc4)nccc3c2c1)c1ccccc1[N+](=O)[O-]
inactive: RXF 631 3.81 µM | SNB-78 5.47 µM | HOP-18 > 100 µM | DMS-273 1.76 µM | XF498 3.59 µM | KM-20L2 1.74 µM | LXFL 529 6.52 µM

N=C(N)NNC(=O)CCn1[nH]c(=O)c(Cl)c(Cl)c1=O
inactive: RXF 631 > 100 µM | HOP-18 > 100 µM | DMS-273 > 100 µM | DLD-1 > 100 µM | XF498 > 100 µM | KM-20L2 > 100 µM | LXFL 529 > 100 µM | M19-MEL > 100 µM

COC(=O)C(C)NP(=O)(N1CC1)N1CC1 (configuration not stated)
inactive: RXF 631 > 100 µM | SNB-78 > 100 µM | DMS-273 91 µM | DLD-1 > 100 µM | XF498 > 100 µM | KM-20L2 > 100 µM | LXFL 529 > 100 µM

Cc1ccc(NC(=O)CSc2nnc(-c3ccc(/N=C\c4ccc(Cl)cc4)cc3)o2)cc1
inactive: SNB-78 > 100 µM | HOP-18 > 100 µM | DMS-273 > 100 µM | XF498 > 100 µM | KM-20L2 > 100 µM | LXFL 529 > 100 µM | M19-MEL > 100 µM

Cc1ccc(C)c(NC(=O)CCC(=O)CC(=O)C(C)(C)C)c1
inactive: SNB-78 > 100 µM | HOP-18 > 100 µM | DMS-273 > 100 µM | DLD-1 > 100 µM | XF498 > 100 µM | KM-20L2 > 100 µM | LXFL 529 > 100 µM | M19-MEL > 100 µM

O=S(=O)(C1=CC(S(=O)(=O)c2ccccc2)CN(Cc2ccccc2)C1c1cccc2ccccc12)c1ccccc1 (configuration not stated)
inactive: RXF 631 > 69 µM | SNB-78 > 69 µM | DMS-273 > 69 µM | DLD-1 > 69 µM | KM-20L2 > 69 µM | M19-MEL > 69 µM

O=C1[C@@H]2C(c3ccncc3)=NO[C@@H]2C(=O)N1c1ccc(Cc2ccc(N3C(=O)[C@H]4C(c5ccncc5)=NO[C@H]4C3=O)cc2)cc1
inactive: RXF 631 > 100 µM | SNB-78 > 100 µM | HOP-18 > 100 µM | DMS-273 > 100 µM | DLD-1 > 100 µM | KM-20L2 > 100 µM | LXFL 529 29.3 µM | M19-MEL > 100 µM

Sc1nnc(-c2ccnc(-c3nnc(S)[nH]3)c2)[nH]1
inactive: SNB-78 > 100 µM | HOP-18 > 100 µM | DMS-273 > 100 µM | DLD-1 > 100 µM | XF498 > 79.1 µM | KM-20L2 > 100 µM | LXFL 529 > 100 µM | M19-MEL > 100 µM

CSc1nc(O)c2cn(Cc3ccccc3)nc2n1
inactive: SNB-78 > 100 µM | HOP-18 > 100 µM | DMS-273 > 100 µM | DLD-1 > 70.5 µM | KM-20L2 > 67.5 µM | LXFL 529 58.6 µM | M19-MEL > 100 µM

COC(=O)C(C(=O)C(=O)Nc1ccccc1OC)c1csc(-n2nc(-c3ccccc3)cc2-c2ccccc2)n1 (configuration not stated)
inactive: RXF 631 > 100 µM | SNB-78 > 100 µM | HOP-18 14.8 µM | DMS-273 > 100 µM | DLD-1 > 100 µM | XF498 > 100 µM | KM-20L2 > 100 µM | LXFL 529 > 100 µM | M19-MEL > 100 µM

CCOC(=O)c1nc(C)oc1C(F)(F)F
inactive: SNB-78 > 100 µM | DLD-1 > 100 µM | XF498 > 100 µM | KM-20L2 > 100 µM | LXFL 529 > 100 µM | M19-MEL > 100 µM

OC(CCl)CN1CC[N+]2(CC1)CC[N+]1(CCN(CC(O)CCl)CC1)CC2 (configuration not stated) [PROSPIDIUM CHLORIDE]
inactive: HOP-18 > 50 µM | DMS-273 > 50 µM | XF498 > 50 µM | KM-20L2 > 50 µM | LXFL 529 > 50 µM | M19-MEL > 50 µM
